As a reminder, the IC50 is the concentration that inhibits the measured activity by half. The low end stands for greater potency in that assay, the high end for weaker potency in that assay. The term Inhibition denotes how much of the control response was suppressed. A high value points to a strong effect. By inhibition in vivo is commonly meant the change of the read-out against control, counted positive when it falls. Low readings indicate a response near the control, high ones a response far below the control.

Where “and” joins values, the source holds several entries; their conditions need not be identical. Identical values can stand only once.

The source of these data is ChEMBL document CHEMBL1131984, “Synthesis and antitumour activity of novel diterpenequinone salvicine and the analogs” (Bioorg Med Chem Lett, 1999).

For test [1], the system named is HL-60. The experiment in a line: In vitro cytotoxic activity against HL-60 human leukemia cell line was determined by MTT assay (microculture terazolium colorimetric). Format: functional, cell-based. A general note: Formazan colour is commonly taken as a measure of viable cells.
The next test concerns P388. As to the kind of experiment: In vitro cytotoxic activity against P388 mouse leukemia cell line by MTT assay (microculture terazolium colorimetric). Format: functional, cell-based.
The next test deals with SGC-7901. As to the kind of experiment: In vitro cytotoxic activity against SGC-7901 stomach cancer solid tumor cell line by MTT assay (microculture terazolium colorimetric). Format: functional, cell-based. Particulars: Homo sapiens.
Another test relates to SPC-A4. As to the kind of experiment: In vitro cytotoxic activity against SPC-A4 lung cancer solid tumor cell line by MTT assay (microculture terazolium colorimetric). Format: functional, cell-based. The note with it: Homo sapiens.
The subject of test [2] is HL-60. As to the kind of experiment: In vitro cytotoxic activity against HL-60 human leukemia cell line by MTT assay (microculture terazolium colorimetric). Format: functional, cell-based.
For test [3], the system named is Mus musculus. As to the kind of experiment: In vivo inhibitory activity against murine S-180 sarcoma at a dose of 3.0 mg/kg (day 7). Format: functional.
The test system of test [4] is Mus musculus. The experiment in a line: In vivo inhibitory activity against murine lewis lung cancer at a dose of 5.0 mg/kg i.p. (day10). Format: functional. The note with it: route intraperitoneal.
The subject of test [5] is Mus musculus. The experiment in a line: Ratio of the tumor weight of mice at the initial stage and the final stage of the experiment was reported at a dose of 5.0 mg/kg i.p. (day10). Format: functional. Particulars: route intraperitoneal.
In test [6] the test system is Mus musculus. The experiment in a line: (§1) Ratio of the tumor weight of mice at the initial stage and the final stage of the experiment was reported at a dose of 3.0 mg/kg (day 7). Format: functional.
The subject of test [7] is Mus musculus. The test is described as §1. Format: functional. This is another data set of the same source.

`CC(C)=CCCc1c(C)ccc2c1C(=O)C(=O)C(C(C)C)=C2`: the IC50 is 2360 nM in the test with HL-60 [1], 1950 nM in the test on P388, 1370 nM in the test on SGC-7901 and 2750 nM in the test with SPC-A4.
`Cc1ccc2c(c1CCC=O)C(=O)C(=O)C(C(C)C)=C2`: the IC50 in the test with HL-60 [2] worked out at 2390 nM; in the test on P388 it was 1780 nM; in the test with SGC-7901, 52400 nM; with SPC-A4, 2680 nM.
In the same order, the values of `Cc1ccc2c(c1CCC(=O)O)C(=O)C(=O)C(C(C)C)=C2` are 2840 nM, 1460 nM, 66900 nM and 2620 nM.
For the molecule `COc1cc([C@@H]2c3cc4c(cc3[C@@H](O[C@@H]3O[C@@H]5CO[C@@H](C)O[C@H]5[C@H](O)[C@H]3O)[C@H]3COC(=O)[C@H]23)OCO4)cc(OC)c1O` [ETOPOSIDE], the Inhibition in the test with Mus musculus [3] is 40% and 39.4% and 61.3%; in the test with Mus musculus [4] (5 mg/kg), 48.5%. Besides, the inhibition in vivo at 5 mg/kg in the test with Mus musculus [4] (Mus musculus, Lung, ip, 240 h) turned out to be 50.3%. Moreover, the Tumor weight was 0.73 g and 1.03 g in the test with Mus musculus [5]; 0.99 g in the test with Mus musculus [6]; 1.09 g and 1.06 g with Mus musculus [7].
Turning to `Cc1ccc2c(c1CCC1OC1(C)C)C(=O)C(=O)C(C(C)C)=C2` (stereo unspecified), the IC50 in the test on HL-60 [2] is 4480 nM; in the test with P388, 3380 nM; in the test on SGC-7901 it was 71500 nM; with SPC-A4 it was 1880 nM.
On the same counts, the results for `Cc1ccc2cc(C(C)C)c(=O)oc(=O)c2c1CCC(=O)C(C)C` are 1430 nM, 1470 nM, 89600 nM and 2760 nM.
